Assay results reported in patent US20160039767A1, “PYRAZOLE DERIVATIVES AS PRMT1 INHIBITORS AND USES THEREOF” (EPIZYME, INC., priority 2013, published 2016).
Where two headings read alike, the source gives them in different places.

Assays:
[1] = molecular target: T1, PRMT1 (Homo sapiens, UniProt Q99873); assay: PRMT1 Biochemical Assay (3H-SAM Flashplate, histone H4 peptide substrate); conditions: Biochemical IC50 (Numerical, μM) PRMT1, single experiment or average of multiple experiments, Table 2a
T1 construct: GST-tagged PRMT1; made in house; host or cells: High Five insect cells (baculovirus, pFastBacI)
T1 sequence (Q99873 with tags, fused parts or gaps): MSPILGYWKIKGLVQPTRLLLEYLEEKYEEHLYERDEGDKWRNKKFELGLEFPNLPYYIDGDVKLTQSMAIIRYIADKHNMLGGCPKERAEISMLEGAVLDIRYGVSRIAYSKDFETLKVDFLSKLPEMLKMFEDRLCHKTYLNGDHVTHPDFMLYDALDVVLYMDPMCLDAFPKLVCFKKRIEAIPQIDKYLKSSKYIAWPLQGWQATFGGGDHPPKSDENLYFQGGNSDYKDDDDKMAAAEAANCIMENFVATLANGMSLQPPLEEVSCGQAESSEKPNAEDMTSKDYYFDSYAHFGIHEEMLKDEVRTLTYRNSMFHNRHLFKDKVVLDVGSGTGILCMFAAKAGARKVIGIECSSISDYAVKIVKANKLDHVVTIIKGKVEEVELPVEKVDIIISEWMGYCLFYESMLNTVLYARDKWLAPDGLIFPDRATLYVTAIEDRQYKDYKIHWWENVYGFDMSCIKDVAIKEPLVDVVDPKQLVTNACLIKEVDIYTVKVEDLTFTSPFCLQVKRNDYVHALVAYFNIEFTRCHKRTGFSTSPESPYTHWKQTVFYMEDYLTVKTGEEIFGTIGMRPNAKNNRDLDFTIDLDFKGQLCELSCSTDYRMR
Source text: S-adenosylmethionine (SAM), S-adenosylhomocysteine (SAH), bicine, Tween20, dimethylsulfoxide (DMSO), bovine skin gelatin (BSG), and Tris(2-carboxyethyl)phosphine hydrochloride solution (TCEP) were purchased from Sigma-Aldrich at the highest level of purity possible. ^3H-SAM was purchase from American Radiolabeled Chemicals with a specific activity of 80 Ci/mmol. 384-well streptavidin Flashplates were purchased from PerkinElmer.
Recombinant baculovirus were generated according to Bac-to-Bac kit instructions (Life Technologies). Protein over-expression was accomplished by infecting exponentially growing High Five insect cell culture at 1.5×10^6 cell/ml with 1:100 ratio of virus. Infections were carried out at 27° C. for 48 hours, harvested by centrifugation, and stored at −80° C. for purification.
GST-tagged PRMT1 was eluted with 50 mM Tris, 2 mM glutathione, pH 7.8, dialysed in buffer A and concentrated to 1 mg/mL.
General Procedure for PRMT1 Enzyme Assays on Peptide Substrates.
The assays were all performed in a buffer consisting of 20 mM Bicine (pH=7.6), 1 mM TCEP, 0.005% BSG, and 0.002% Tween 20, prepared on the day of use. […] DMSO (1 ul) was added to Columns 11, 12, 23, 24, rows A-H for the maximum signal control and 1 ul of SAH, a known product and inhibitor of PRMT1, was added to columns 11, 12, 23, 24, rows I-P for the minimum signal control. A cocktail (40 ul) containing the PRMT1 enzyme was added by Multidrop Combi (Thermo-Fisher). The compounds were allowed to incubate with PRMT1 for 30 min at room temperature, then a cocktail (10 ul) containing SAM and peptide was added to initiate the reaction (final volume=51 ul). […] The assays were stopped by the addition of non-radiolabeled SAM (10 ul) to a final concentration of 300 uM, which dilutes the ^3H-SAM to a level where its incorporation into the peptide substrate is no longer detectable. […] The plates were then read in a PerkinElmer TopCount plate reader to measure the quantity of ^3H-labeled peptide bound to the Flashplate surface, measured as disintegrations per minute (dpm) or alternatively, referred to as counts per minute (cpm).
Where dpm=disintegrations per minute, cmpd=signal in assay well, and min and max are the respective minimum and maximum signal controls.
Where top and bottom are the normally allowed to float, but may be fixed at 100 or 0 respectively in a 3-parameter fit. The Hill Coefficient normally allowed to float but may also be fixed at 1 in a 3-parameter fit. Y is the % inhibition and X is the compound concentration.

[2] = test system: RKO cells; assay: RKO Methylation Assay (In Cell Western for mono-methyl arginine and DNA content); type: cell-based; conditions: Homo sapiens
Source text: RKO adherent cells were purchased from ATCC (American Type Culture Collection), Manassas, Va., USA. DMEM/Glutamax medium, penicillin-streptomycin, heat inactivated fetal bovine serum, 0.05% trypsin and D-PBS were purchased from Life Technologies, Grand Island, N.Y., USA. Odyssey blocking buffer, 800CW goat anti-rabbit IgG (H+L) antibody, and Licor Odyssey infrared scanner were purchased from Licor Biosciences, Lincoln, Nebr., USA. Mono-methyl arginine antibody was purchased from Cell Signaling Technology, Danvers, Mass., USA. Methanol was purchased from VWR, Franklin, Mass., USA. 10% Tween 20 was purchased from KPL, Inc., Gaithersburg, Md., USA. DRAQ5 was purchased from Biostatus Limited, Leicestershire, UK.
RKO adherent cells were maintained in growth medium (DMEM/Glutamax medium supplemented with 10% v/v heat inactivated fetal bovine serum and 100 units/mL penicillin-streptomycin) and cultured at 37° C. under 5% CO2.
Cell Treatment, in Cell Western (ICW) for Detection of Mono-Methyl Arginine and DNA Content.
Compound (100 nL) from a 96-well source plate was added directly to 384 well cell plate. Plates were incubated at 37° C., 5% CO2 for 72 hours. After three days of incubation, plates were brought to room temperature outside of the incubator for ten minutes and blotted on paper towels to remove cell media. 50 μL of ice cold 100% methanol was added directly to each well and incubated for 30 min at room temperature. After 30 min, plates were transferred to a Biotek EL406 plate washer and washed 2 times with 100 μL per well of wash buffer (1×PBS). Next 60 μL per well of Odyssey blocking buffer (Odyssey Buffer with 0.1% Tween 20 (v/v)) were added to each plate and incubated 1 hour at room temperature. Blocking buffer was removed and 20 μL per well of primary antibody was added (mono-methyl arginine diluted 1:200 in Odyssey buffer with 0.1% Tween 20 (v/v)) and plates were incubated overnight (16 hours) at 4° C. Plates were washed 5 times with 100 µL per well of wash buffer. Next 20 μL per well of secondary antibody was added (1:200 800CW goat anti-rabbit IgG (H+L) antibody, 1:1000 DRAQ5 (Biostatus limited) in Odyssey buffer with 0.1% Tween 20 (v/v)) and incubated for 1 hour at room temperature. The plates were washed 5 times with 100 μL per well wash buffer then 2 times with 100 μL per well of water. Plates were allowed to dry at room temperature then imaged on the Licor Odyssey machine which measures integrated intensity at 700 nm and 800 nm wavelengths. Both 700 and 800 channels were scanned.
First, the ratio for each well was determined by:
Each plate included fourteen control wells of DMSO only treatment (minimum activation) as well as fourteen control wells for maximum activation treated with 20 μM of a reference compound. The average of the ratio values for each control type was calculated and used to determine the percent activation for each test well in the plate. Reference compound was serially diluted three-fold in DMSO for a total of nine test concentrations, beginning at 20 μM. Percent activation was determined and EC30 curves were generated using triplicate wells per concentration of compound.

[3] = RKO, 72 h, read-out: In Cell Western data (Numerical, μM) EC30
[4] = RKO, 72 h, read-out: In Cell Western data EC30
[5] = RKO cells, 72 hours, mono-methyl arginine, class symbols, Table 3, read-out: In Cell Western data EC30
[6] = RKO cells, 72 hours, mono-methyl arginine, single experiment or average of multiple experiments, Table 3a, read-out: In Cell Western data (Numerical, μM) EC30

Row | Structure (SMILES) | IC50 [1] [µM] | EC30 [2, 3] [µM] | EC30 [2, 4] [µM] | EC30 [2, 5] [µM] | EC30 [2, 6] [µM]
1 | CN(CCN)Cc1c[nH]nc1-c1cc(C(F)(F)F)cc(C(F)(F)F)c1 [Compound 2] | 0.389 |  |  |  | 
2 | CN(CCN)Cc1c[nH]nc1-c1ccc(F)c(C(F)(F)F)c1 [Compound 4] | 0.0572 |  |  |  | 
3 | CC(C)Oc1ccc(-c2n[nH]cc2CN(C)CCN)cc1C(F)(F)F [Compound 5] | 0.00445 | 0.305 | < 3 |  | 
4 | CC(C)Oc1cc(-c2n[nH]cc2CN(C)CCN)cc(C(F)(F)F)c1 [Compound 6] | 0.0687 | 10.8 | 3.01 to 12 |  | 
5 | CNCCN(C)Cc1c[nH]nc1-c1ccc(OCCC(C)C)c(C(F)(F)F)c1 [Compound 9] |  | 1.77 | < 3 |  | 
6 | CNCCN(C)Cc1c[nH]nc1-c1ccc(OCC(C)C)c(C(F)(F)F)c1 [Compound 10] | 0.00451 | 0.537 | < 3 |  | 
7 | CCCOc1ccc(-c2n[nH]cc2CN(C)CCNC)cc1C(F)(F)F [Compound 11] | 0.00462 | 0.558 | < 3 |  | 
8 | CNCCN(C)Cc1c[nH]nc1-c1ccc(OCCCOC)c(C(F)(F)F)c1 [Compound 13] | 0.0108 | 0.567 | < 3 |  | 
9 | CNCCN(C)Cc1c[nH]nc1-c1ccc(OCCOC)c(C(F)(F)F)c1 [Compound 14] | 0.00554 | 0.383 | < 3 |  | 
10 | CN(CCN)Cc1c[nH]nc1-c1ccc(Oc2ccccc2)c(C(F)(F)F)c1 [Compound 23] | 0.00301 | 1.51 | < 3 |  | 
11 | CNCCN(C)Cc1c[nH]nc1-c1cc(Cl)c(OC(C)C)c(C(F)(F)F)c1 [Compound 25] | 0.0101 | 0.983 | < 3 |  | 
12 | CNCCN(C)Cc1c[nH]nc1-c1cc(OC2CCCCC2)cc(C(F)(F)F)c1 [Compound 39] | 0.0259 |  |  |  | 
13 | CNCCN(C)Cc1c[nH]nc1-c1cc(OCCc2ccccc2)cc(C(F)(F)F)c1 [Compound 42] |  | 2.7 | < 3 |  | 
14 | CNCCN(C)Cc1c[nH]nc1-c1cc(OCC2CCCC2)cc(C(F)(F)F)c1 [Compound 45] | 0.0103 |  |  |  | 
15 | CNCCN(C)Cc1c[nH]nc1-c1cc(Oc2cncnc2)cc(C(F)(F)F)c1 [Compound 53] | 0.299 |  |  |  | 
16 | COCCOc1cc(-c2n[nH]cc2CN(C)CCN)cc(C(F)(F)F)c1Cl [Compound 56] | 0.194 |  |  |  | 
17 | CNCCN(C)Cc1c[nH]nc1-c1cc(OCCCC(=O)OC)cc(C(F)(F)F)c1 [Compound 61] | 0.0165 |  |  |  | 
18 | CC(C)CCc1cc(-c2n[nH]cc2CN(C)CCN)cc(C(F)(F)F)c1 [Compound 63] | 0.0114 |  |  |  | 

Second part, led by results:

Row | IC50 [1] [µM] | Structure (SMILES) | EC30 [2, 3] [µM] | EC30 [2, 4] [µM] | EC30 [2, 5] [µM] | EC30 [2, 6] [µM]
19 | 0.123 | CNCCN(C)Cc1c[nH]nc1-c1cccc(C(F)(F)F)c1 [Compound 1] |  |  |  | 
20 | 0.0232 | CN(CCN)Cc1c[nH]nc1-c1ccc(Cl)c(C(F)(F)F)c1 [Compound 3] |  |  |  | 
21 | 2.6 | CN(CCN)Cc1n[nH]cc1-c1cc(C(F)(F)F)cc(C(F)(F)F)c1 [Compound 7] |  |  |  | 
22 | 0.0165 | CC(C)Oc1ccc(-c2c[nH]nc2CN(C)CCN)cc1C(F)(F)F [Compound 8] |  |  | < 3 | 2.69
23 | 0.00704 | CNCCN(C)Cc1c[nH]nc1-c1cc(OCCC(C)C)cc(C(F)(F)F)c1 [Compound 12] |  |  | < 3 | 1.44
24 | 0.0162 | CNCCN(C)Cc1c[nH]nc1-c1cc(OCC(C)C)cc(C(F)(F)F)c1 [Compound 15] |  |  |  | 
25 | 0.0204 | CNCCN(C)Cc1c[nH]nc1-c1cc(OCCOC)cc(C(F)(F)F)c1 [Compound 16] |  |  | < 3 | 2.24
26 | 0.00988 | CNCCN(C)Cc1n[nH]cc1-c1ccc(OCC(C)C)c(C(F)(F)F)c1 [Compound 18] |  |  | < 3 | 2.69
27 | 0.0275 | CCCOc1cc(-c2n[nH]cc2CN(C)CCNC)cc(C(F)(F)F)c1 [Compound 19] |  |  | 3.01 to 12 | 5.07
28 | 0.0553 | CNCCN(C)Cc1n[nH]cc1-c1ccc(OCCCOC)c(C(F)(F)F)c1 [Compound 20] |  |  | < 3 | 2.04
29 | 0.0328 | CNCCN(C)Cc1n[nH]cc1-c1ccc(OCCOC)c(C(F)(F)F)c1 [Compound 21] |  |  | < 3 | 0.812
30 | 0.0189 | CNCCN(C)Cc1n[nH]cc1-c1cc(OCCC(C)C)cc(C(F)(F)F)c1 [Compound 22] |  |  |  | 
31 | 0.0229 | CNCCN(C)Cc1c[nH]nc1-c1cc(OCCCOC)cc(C(F)(F)F)c1 [Compound 24] |  |  | 3.01 to 12 | 4.02
32 | 0.00917 | CN(CCN)Cc1n[nH]cc1-c1ccc(Oc2ccccc2)c(C(F)(F)F)c1 [Compound 26] |  |  |  | 
33 | 0.139 | CNCCN(C)Cc1n[nH]cc1-c1cc(OCCCOC)cc(C(F)(F)F)c1 [Compound 27] |  |  |  | 
34 | 0.00659 | CCCOc1ccc(-c2c[nH]nc2CN(C)CCNC)cc1C(F)(F)F [Compound 28] |  |  | < 3 | 1.1
35 | 0.0663 | CNCCN(C)Cc1n[nH]cc1-c1cc(OCC(C)C)cc(C(F)(F)F)c1 [Compound 29] |  |  |  | 
36 | 0.17 | CCCOc1cc(-c2c[nH]nc2CN(C)CCNC)cc(C(F)(F)F)c1 [Compound 31] |  |  |  | 
37 | > 1 | CNCCN(C)Cc1n[nH]cc1-c1cc(C(O)C(C)C)cc(C(F)(F)F)c1 (centres unmarked) [Compound 32] |  |  |  | 
38 | 0.0441 | CNCCN(C)Cc1n[nH]cc1-c1cc(Cl)c(OC(C)C)c(C(F)(F)F)c1 [Compound 33] |  |  |  | 
39 | 0.152 | CC(C)CCOc1cc(-c2n[nH]cc2CN(C)CCN)cc(C(F)(F)F)c1Cl [Compound 40] |  |  |  | 
40 | 0.146 | CNCCN(C)Cc1c[nH]nc1-c1cc(OCCC(C)C)c(Cl)c(C(F)(F)F)c1 [Compound 54] |  |  |  | 
41 | 0.163 | CNCCN(C)Cc1c[nH]nc1-c1cc(OCCOC)c(Cl)c(C(F)(F)F)c1 [Compound 55] |  |  |  | 
42 | 0.0318 | CNCCN(C)Cc1c[nH]nc1-c1cc(OCCCOC)c(Cl)c(C(F)(F)F)c1 [Compound 57] |  |  |  | 
43 | 0.0576 | CNCCN(C)Cc1c[nH]nc1-c1cc(OCC(F)(F)F)cc(C(F)(F)F)c1 [Compound 60] |  |  |  | 
44 | 0.0136 | CNCCN(C)Cc1c[nH]nc1-c1cc(CCC(C)C)cc(C(F)(F)F)c1 [Compound 62] |  |  |  | 
